Consider 1 molecule from ChEMBL document CHEMBL1133554, “Synthesis, structure-activity relationships, and pharmacological profile of 9-amino-4-oxo-1-phenyl-3,4,6,7-tetrahydro[1,4]diazepino[6, 7,1-hi]indoles: discovery of potent, selective phosphodiesterase type 4 inhibitors” (J Med Chem, 2000).

Experiment [1] deals with T1, Phosphodiesterase 4 (Homo sapiens, UniProt P27815+Q08499+Q07343+Q08493). Put plainly: Inhibition of phosphodiesterase type 4 isozyme (PDE4) from the U937 human cell line. The settings on record: u-937. Type of experiment: cell-based.
For experiment [2], the target named is Phosphodiesterase, PDE1/PDE5 (Homo sapiens, UniProt O76074+P54750+Q01064+Q14123). The experiment in a line: Inhibition of phosphodiesterase 1/5 isozyme (PDE1/5) mixture isolated from the guinea pig trachea. More on the design: species or system Cavia porcellus. The settings on record: target entry is the homologue from another species.
The next experiment addresses Phosphodiesterase 3 (Homo sapiens, UniProt Q14432+Q13370). Put plainly: Inhibition of phosphodiesterase 3 (PDE3) isolated from the dog aorta. Format: protein assay, Canis lupus familiaris. The settings on record: target entry is the homologue from another species.
Experiment [3] is described as follows: In vivo inhibition of LPS-stimulated TNF-alpha release in Wistar rats at 10 mg/kg oral dose. The settings on record: Rattus norvegicus, dose 10 mg/kg. Type of experiment: functional.
Experiment [4] in a line: In vitro inhibition of TNF-alpha-release from human whole blood. Format: functional.
Experiment [5] in a line: In vitro inhibition of TNF-alpha release from human peripheral blood monocytes. Type of experiment: functional.
Experiment [6] concerns the target T1, Phosphodiesterase 4. The experiment in a line: PDE4-related emetic activity in ferrets after intravenous administration at 40 mg/kg. Format: functional, organism-based. More on the design: dose 40 mg/kg. The settings on record: Mustela putorius furo, target entry is the homologue from another species.
The next experiment deals with Rattus norvegicus. The experiment in a line: In vivo inhibition of antigen induced eosinophil recruitment in Brown-Norvway Rats at 10 mg/kg peroral dose. Format: functional. The settings on record: route oral.

The term IC50 denotes the concentration needed to halve the response being measured. A word on the inhibition in vivo: it is the relative decrease from the control value, in per cent. By ED50 is commonly meant the dose at which the effect has come halfway, by size or by number of responders. Regarding `Nc1cc2c3c(c1)C(c1ccccc1)=N[C@@H](NC(=O)c1ccncc1)C(=O)N3CC2`, the 50% inhibitory concentration (IC50) is 500 nM at Phosphodiesterase 4 [1]; above 100000 nM in experiment [2]; above 100000 nM on Phosphodiesterase 3; 1090 nM in experiment [4]; 480 nM in experiment [5]. In addition, in experiment [3], the inhibition in vivo at 10 mg/kg is -71%. Besides, on Phosphodiesterase 4 [6], the R+V was 0 90 min. In the experiment on Rattus norvegicus, the ED50 was found to be 1.89 mg/kg.
